One data set addresses T1, P-gp (Homo sapiens, UniProt P08183).
T1 construct: The MDR, P-gp overexpressing DU145-TXR cells were maintained under positive selection pressure; endogenous in cells; host or cells: DU145-TXR (paclitaxel-resistant sub-line of DU145 human prostate cancer cells)
The experiment in a line: LC-MS/MS intracellular accumulation assay with or without tariquidar (P-gp transport substrate test) in DU145-TXR cells. The class given is in vitro ADME. The following applies: for P-gp transport substrate assessment: 5 µM compound with or without 500 nM tariquidar, LC-MS/MS. On the procedure:
DU145-TXR cells were seeded at 350,000 cells per well in 6-well plates in complete RPMI medium. […] A full sample of DAU was also prepared for quantitative analysis. […] Media was removed with a glass vacuum aspirator. Cells were re-suspended and washed in 2mL of ice-cold Hank’s Balanced Salt Solution (HBSS, Gibco), and spun again at 2400 rpm. Cell lysates were diluted in 600 µL of ice-cold HBSS, flash-frozen in liquid nitrogen, and stored at −80 °C until analysis. LC-MS/MS intracellular accumulation assays were performed in collaboration with the Pharmacology Core at the University of Texas Southwestern Medical Center (UTSW). […] This method allowed us to quantify the change – if any – in the relative amount of compound present in the samples when TQR was added. An increase in the relative amount of compound indicates enhanced intracellular retention that compound. […] The “Internal Standard” (IS) is a known substance added in a constant amount to each sample. The “Peak Area”, expressed as “counts”, describes the number of MS/MS spectra from the experimental compound and serves as a measure of its relative abundance. […] These values allow a comparison of the relative abundance of compound between the “- TQR” and “+ TQR” samples, and to test for statistically significant differences. LC-MS/MS quantification was performed as follows. Cell lysate was aliquoted into Eppendorf tubes. In contrast to [9], blank cell lysates were not spiked with varying concentrations of each compound to create a standard curve, since compound amounts were normalized to abundance of the internal standard. […] The supernatant was then transferred to an HPCL vial, and subsequently analyzed using LC-MS/MS using a Sciex 4000QTRAP mass spectrometer coupled to a Shimadzu Prominence LC. […] The column flow rate was 1.5 ml/min using an Agilent C18 XDB, 5 micron packing 50 × 4.6 mm column. […] A BSA standard curve was then prepared in water and mixed using the same ratio. […] The ratio of Analyte to Internal Standard was normalized to the lysate content for each individual sample. […] Statistical significance was determined using a Student’s T Test in GraphPad Prism. We aimed to identify P-gp inhibitors that are not transport substrates of the pump itself. […] To test these predictions in vitro, liquid chromatography with tandem mass spectrometry (LC-MS/MS) was used to assess the intracellular accumulation of experimental compounds as described in [9]. […] The relative intracellular accumulation of each experimental compound was then assessed using LC-MS/MS. […] The P-gp substrate and chemotherapeutic daunorubicin (DAU) was used as a positive control for P-gp-mediated transport.

Data set [1] can be described thus: SWISS-ADME computational analysis of chemical properties. The following applies: predicted aqueous solubility compared to that observed in the laboratory. An excerpt: Identifying P-gp inhibitors that are not transport substrates remains inherently challenging. To that end, computational tools such as the SWISS-ADME server attempt to use a molecule’s unique chemical and structural characteristics to predict whether it is likely to be a P-gp transport substrate. Our LC-MS/MS assays allowed us to retroactively test the validity of predictions from SWISS-ADME. […] Alternative identifiers for the molecules identified in this study are shown in S7 Table.
S1 Table. Known P-gp Inhibitors and Predicted Chemical Properties. A non-exhaustive list of known P-gp inhibitors and their selected chemical properties ^[64, 65]. Clinical trial outcomes were adapted from ^[10, 11]. Compounds were evaluated using the SWISS-ADME server ^[54]. […] “Predicted P-gp Substrate” - predicted by SWISS-ADME to be a transport substrate of P-gp. “Known P-gp Substrate” – In addition to being P-gp inhibitors, these molecules are: known transport substrates of P-gp, known non-transport substrates of P-gp, unknown whether it is a transport substrate of P-gp ^[66-68]. If the molecule is designated in a specific generation of P-gp inhibitors - First Generation P-gp inhibitors, Second generation P-gp inhibitors, Third generation P-gp inhibitors.

The mark [2] stands for this setting: DU145-TXR, 5 µM compound, 2.5 h, with 500 nM tariquidar, mean ± SD, triplicate.
The mark [3] stands for this setting: DU145-TXR, 5 µM compound, 2.5 h, without tariquidar, mean ± SD, triplicate.
Where [4] appears, read: significant difference = likely P-gp transport substrate.

T1 sequence (P08183 whole entry): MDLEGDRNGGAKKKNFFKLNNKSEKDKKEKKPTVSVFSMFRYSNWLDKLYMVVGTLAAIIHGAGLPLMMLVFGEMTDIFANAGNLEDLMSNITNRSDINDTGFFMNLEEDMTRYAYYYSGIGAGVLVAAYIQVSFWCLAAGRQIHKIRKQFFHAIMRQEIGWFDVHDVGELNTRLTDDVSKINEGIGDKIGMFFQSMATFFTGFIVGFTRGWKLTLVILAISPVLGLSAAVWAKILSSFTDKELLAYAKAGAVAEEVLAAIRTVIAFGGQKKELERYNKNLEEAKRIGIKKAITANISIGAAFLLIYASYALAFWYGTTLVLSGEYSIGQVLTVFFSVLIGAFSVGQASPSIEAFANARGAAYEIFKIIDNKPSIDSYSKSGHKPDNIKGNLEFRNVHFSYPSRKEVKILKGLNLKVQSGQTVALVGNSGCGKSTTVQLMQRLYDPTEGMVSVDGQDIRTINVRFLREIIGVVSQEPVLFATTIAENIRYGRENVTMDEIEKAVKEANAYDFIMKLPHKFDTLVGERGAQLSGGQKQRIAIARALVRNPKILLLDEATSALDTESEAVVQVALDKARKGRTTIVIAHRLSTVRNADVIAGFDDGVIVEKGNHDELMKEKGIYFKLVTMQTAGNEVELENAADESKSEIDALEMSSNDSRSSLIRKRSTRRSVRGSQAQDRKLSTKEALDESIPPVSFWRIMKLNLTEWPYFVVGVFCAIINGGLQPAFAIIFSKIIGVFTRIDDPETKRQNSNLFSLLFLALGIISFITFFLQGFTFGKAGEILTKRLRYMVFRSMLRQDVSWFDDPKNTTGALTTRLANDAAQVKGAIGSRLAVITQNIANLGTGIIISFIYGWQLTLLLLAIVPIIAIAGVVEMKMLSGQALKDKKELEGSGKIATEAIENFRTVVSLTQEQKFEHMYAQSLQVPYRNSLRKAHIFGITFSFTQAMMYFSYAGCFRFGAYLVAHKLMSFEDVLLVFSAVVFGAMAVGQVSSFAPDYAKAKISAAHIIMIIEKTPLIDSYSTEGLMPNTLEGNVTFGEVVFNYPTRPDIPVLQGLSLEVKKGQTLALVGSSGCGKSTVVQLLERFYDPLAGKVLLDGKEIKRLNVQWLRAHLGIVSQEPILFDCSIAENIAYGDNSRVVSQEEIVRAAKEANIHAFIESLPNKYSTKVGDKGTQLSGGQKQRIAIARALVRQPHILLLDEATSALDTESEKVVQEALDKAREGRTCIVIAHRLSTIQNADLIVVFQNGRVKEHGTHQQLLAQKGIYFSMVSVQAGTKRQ

For `COc1cccc(N2CCN(c3ccc4nnc(CCC(=O)Nc5ccc(F)c(F)c5)n4n3)CC2)c1` [Compound 101, COc1cccc(c1)N1CCN(CC1)c1ccc2nnc(CCC(=O)Nc3ccc(F)c(F)c3)n2n1], the “P-gp transport substrate assessment” value on P-gp (DU145-TXR, 2.5 h) was “unlikely to be transport substrates of P-gp”. Further, on P-gp (setting [2]), the “Intracellular accumulation (normalized ratio of compound to internal standard), Trial 1, + TQR” value worked out at 12.03 ± 2.45 and the “Intracellular accumulation (normalized ratio of compound to internal standard), Trial 2, + TQR” value stood at 22.88 ± 2.92. In addition, on P-gp (setting [3]), the “Intracellular accumulation (normalized ratio of compound to internal standard), Trial 1, - TQR” value was 11.86 ± 1.16 and the “Intracellular accumulation (normalized ratio of compound to internal standard), Trial 2, - TQR” value was 21.17 ± 3.59. On P-gp (Student's T test of the mean), the “P (- TQR vs + TQR), Trial 1” value is 0.9 and the “P (- TQR vs + TQR), Trial 2” value is reported as 0.6. Moreover, at P-gp (setting [4]), the “Significance of accumulation with tariquidar, Trial 1” value (“Significance … Trial 1” below) is “N.S. (P > 0.05 = not significant (N.S.))” and the “Significance of accumulation with tariquidar, Trial 2” value (“Significance … Trial 2” below) is recorded as “N.S. (P > 0.05 = not significant (N.S.))”. For the same compound, in data set [1], the “Correct Water Solubility Prediction?” value was “Yes”.

As to `Cc1ccc(-c2noc(-c3cn(Cc4ccc(NS(=O)(=O)c5ccccc5F)cc4)cn3)n2)cc1` [Compound 103, Cc1ccc(cc1)-c1noc(n1)-c1cn(Cc2ccc(NS(=O)(=O)c3ccccc3F)cc2)cn1], the “P-gp transport substrate assessment” value on P-gp (DU145-TXR, 2.5 h) is “potential P-gp transport substrates”. Further, at P-gp (setting [2]), the “Intracellular accumulation (normalized ratio of compound to internal standard), Trial 1, + TQR” value is on record as 5.61 ± 1.34; the “Intracellular accumulation (normalized ratio of compound to internal standard), Trial 2, + TQR” value is 3.75 ± 0.34; the “Intracellular accumulation (normalized ratio of compound to internal standard), Trial 3, + TQR” value is recorded as 3.73 ± 0.15. Further, on P-gp (setting [3]), the “Intracellular accumulation (normalized ratio of compound to internal standard), Trial 1, - TQR” value was 5.13 ± 0.6; the “Intracellular accumulation (normalized ratio of compound to internal standard), Trial 2, - TQR” value was determined as 2.63 ± 0.52; the “Intracellular accumulation (normalized ratio of compound to internal standard), Trial 3, - TQR” value was 3.21 ± 0.23. Besides, at P-gp (Student's T test of the mean), the “P (- TQR vs + TQR), Trial 1” value turned out to be 0.6; the “P (- TQR vs + TQR), Trial 2” value came to 0.04; the “P (- TQR vs + TQR), Trial 3” value was 0.03. Besides, on P-gp (setting [4]), the “Significance … Trial 1” value is on record as “N.S. (P > 0.05 = not significant (N.S.))”; the “Significance … Trial 2” value was “* (P < 0.05 = *)”; the “Significance of accumulation with tariquidar, Trial 3” value is recorded as “* (P < 0.05 = *)”. In addition, the “Correct Water Solubility Prediction?” value in data set [1] is listed as “No”.

`Cc1onc(-c2ccccc2)c1-c1nnc(Cn2cnc3ccccc3c2=O)o1` [Compound 111, Cc1onc(c1-c1nnc(Cn2cnc3ccccc3c2=O)o1)-c1ccccc1]: the “P-gp transport substrate assessment” value at P-gp (DU145-TXR, 2.5 h) is reported as “unlikely to be transport substrates of P-gp”. Moreover, on P-gp (setting [2]), the “Intracellular accumulation (normalized ratio of compound to internal standard), Trial 1, + TQR” value was determined as 0.013 ± 0.004 and the “Intracellular accumulation (normalized ratio of compound to internal standard), Trial 2, + TQR” value stood at 0.013 ± 0.001. At P-gp (setting [3]), the “Intracellular accumulation (normalized ratio of compound to internal standard), Trial 1, - TQR” value was 0.012 ± 0.002 and the “Intracellular accumulation (normalized ratio of compound to internal standard), Trial 2, - TQR” value was 0.011 ± 0.002. At P-gp (Student's T test of the mean), the “P (- TQR vs + TQR), Trial 1” value was found to be 0.7 and the “P (- TQR vs + TQR), Trial 2” value is reported as 0.2. In addition, on P-gp (setting [4]), the “Significance … Trial 1” value is “N.S. (P > 0.05 = not significant (N.S.))” and the “Significance … Trial 2” value is reported as “N.S. (P > 0.05 = not significant (N.S.))”. Also, the “Correct Water Solubility Prediction?” value in data set [1] is reported as “Yes”.

For the compound `O=C(NCc1cccc(F)c1)c1nnn2c1Sc1c(C(=O)NCc3cccc(F)c3)nnn1CC2` [Compound 122, Fc1cccc(CNC(=O)c2nnn3CCn4nnc(C(=O)NCc5cccc(F)c5)c4Sc23)c1], the “P-gp transport substrate assessment” value at P-gp (DU145-TXR, 2.5 h) is recorded as “potential P-gp transport substrates”. On P-gp (setting [2]), the “Intracellular accumulation (normalized ratio of compound to internal standard), Trial 1, + TQR” value turned out to be 0.146 ± 0.018 and the “Intracellular accumulation (normalized ratio of compound to internal standard), Trial 2, + TQR” value turned out to be 0.209 ± 0.014. For the same compound, at P-gp (setting [3]), the “Intracellular accumulation (normalized ratio of compound to internal standard), Trial 1, - TQR” value is listed as 0.049 ± 0.005 and the “Intracellular accumulation (normalized ratio of compound to internal standard), Trial 2, - TQR” value was 0.058 ± 0.018. Moreover, on P-gp (Student's T test of the mean), the “P (- TQR vs + TQR), Trial 1” value is given as 0.0008 and the “P (- TQR vs + TQR), Trial 2” value was 0.0003. Further, at P-gp (setting [4]), the “Significance … Trial 1” value is reported as “*** (P < 0.001 = ***)” and the “Significance … Trial 2” value is listed as “*** (P < 0.001 = ***)”. The “Correct Water Solubility Prediction?” value in data set [1] was “Yes”.

As for `O=C(c1nc(-c2ccccn2)no1)N1CCN(c2nsc3ccccc23)CC1` [Compound 124, O=C(N1CCN(CC1)c1nsc2ccccc12)c1nc(no1)-c1ccccn1], the “P-gp transport substrate assessment” value at P-gp (DU145-TXR, 2.5 h) is given as “potential P-gp transport substrates”. Besides, at P-gp (setting [2]), the “Intracellular accumulation (normalized ratio of compound to internal standard), Trial 1, + TQR” value was found to be 0.061 ± 0.011 and the “Intracellular accumulation (normalized ratio of compound to internal standard), Trial 2, + TQR” value is listed as 0.055 ± 0.009. Also, at P-gp (setting [3]), the “Intracellular accumulation (normalized ratio of compound to internal standard), Trial 1, - TQR” value was 0.006 ± 0.001 and the “Intracellular accumulation (normalized ratio of compound to internal standard), Trial 2, - TQR” value was determined as 0.007 ± 0.002. At P-gp (Student's T test of the mean), the “P (- TQR vs + TQR), Trial 1” value is 0.001 and the “P (- TQR vs + TQR), Trial 2” value stood at 0.0008. Further, on P-gp (setting [4]), the “Significance … Trial 1” value is reported as “** (P < 0.01 = **)” and the “Significance … Trial 2” value is recorded as “*** (P < 0.001 = ***)”. Moreover, the “Correct Water Solubility Prediction?” value in data set [1] is recorded as “Yes”.

Values taken from PMC12349723, “Computationally accelerated identification of P-glycoprotein inhibitors” (PLOS One, 2025).
